This is an account of results in patent US10065990B2, “Cyclic peptide compound, and preparation method, pharmaceutical composition and use thereof” (HANGZHOU GUANYU BIO-MEDICAL CO., LTD, priority 2013, dated 2018).

Where two headings read alike, the source gives them in different places.

One assay concerns the target T1, HDAC7 (Homo sapiens, UniProt Q8WUI4).
T1 sequence (Q8WUI4 1-952): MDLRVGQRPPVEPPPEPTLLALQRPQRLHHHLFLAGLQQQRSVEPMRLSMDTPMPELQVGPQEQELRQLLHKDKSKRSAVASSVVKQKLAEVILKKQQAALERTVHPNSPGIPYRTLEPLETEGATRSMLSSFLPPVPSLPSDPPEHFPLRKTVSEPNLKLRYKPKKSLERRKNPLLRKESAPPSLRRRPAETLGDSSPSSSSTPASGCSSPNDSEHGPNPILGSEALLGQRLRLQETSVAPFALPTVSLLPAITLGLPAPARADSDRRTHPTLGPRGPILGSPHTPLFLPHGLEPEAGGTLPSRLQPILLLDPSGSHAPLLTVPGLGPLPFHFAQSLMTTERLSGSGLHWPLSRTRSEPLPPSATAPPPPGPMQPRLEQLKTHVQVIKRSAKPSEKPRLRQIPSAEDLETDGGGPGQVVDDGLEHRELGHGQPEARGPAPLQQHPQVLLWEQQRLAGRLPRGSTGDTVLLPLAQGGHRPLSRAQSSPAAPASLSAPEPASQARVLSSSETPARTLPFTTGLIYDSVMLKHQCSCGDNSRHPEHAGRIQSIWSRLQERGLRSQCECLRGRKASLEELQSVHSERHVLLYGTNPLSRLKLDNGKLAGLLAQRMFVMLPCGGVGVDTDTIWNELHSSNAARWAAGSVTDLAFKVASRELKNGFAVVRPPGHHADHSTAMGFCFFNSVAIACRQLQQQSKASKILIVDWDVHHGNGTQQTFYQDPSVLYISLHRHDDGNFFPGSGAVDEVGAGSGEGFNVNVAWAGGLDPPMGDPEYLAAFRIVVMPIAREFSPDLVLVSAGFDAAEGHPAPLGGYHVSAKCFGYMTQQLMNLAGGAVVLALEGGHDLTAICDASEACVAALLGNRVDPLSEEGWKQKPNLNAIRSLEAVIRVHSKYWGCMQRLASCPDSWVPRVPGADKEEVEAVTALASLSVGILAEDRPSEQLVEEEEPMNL
The assay is described as follows: HDAC biochemical activity measurement (fluorescent substrate deacetylation).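 Also: fluorogenic deacetylation assay using acetyl-lysine substrate at 20 µM, enzyme and compound incubated 30 min at 37 °C, then developer added, fluorescence read at 360/460 nm.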 To be noted: HDAC7; 37° C. 30 minutes.

In assay [1] the test system is A549 (human lung cancer cells). The assay is described as follows: MTT cancer cell growth inhibition. Type of assay: cell-based. To be noted: Homo sapiens, A549, 72 h, MTT, 72 hours incubation, read-out: GI50 A54. In outline:
(§1)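 72 h exposure, final drug 10^−5–10^−10 M, triplicate wells; 1500 cells/well plated the day before; medium DMEM or 1640 + 10% FBS; 37° C./5% CO2. MTT (5 mg/ml stock) 4 h, DMSO solubilisation, A570 → % viability → GI50.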

The test system of assay [2] is BGC-823 (human gastric cancer cells). The assay can be described thus: MTT cancer cell growth inhibition. The assay is classed as cell-based. To be noted: Homo sapiens, BGC-823, 72 h, MTT, 72 hours incubation, read-out: GI50 BG. The method in brief: as §1
Assay [3] relates to Bel-7402 (human hepatoma cells). The assay can be described thus: MTT cancer cell growth inhibition. The assay is classed as cell-based. The following applies: Homo sapiens, Bel-7402, 72 h, MTT, 72 hours incubation, Bel-7402 cells; read-out: GI50 Bel-7402. In outline: as §1
For assay [4], the system named is DU145 (human prostate cancer cells). The assay can be described thus: MTT cancer cell growth inhibition. The assay is classed as cell-based. To be noted: Homo sapiens, DU-145, 72 h, MTT, 72 hours incubation, read-out: GI50 Du1. The method in brief: as §1
For assay [5], the system named is H1975 (non-small cell lung adenocarcinoma). The assay can be described thus: MTT cancer cell growth inhibition. The assay is classed as cell-based. To be noted: Homo sapiens, NCI-H1975, 72 h, MTT, 72 hours incubation, H1975 cells; read-out: GI50 H1975. The method in brief: as §1
For assay [6], the system named is HCC827 (human non-small cell lung cancer cells). The assay can be described thus: MTT cancer cell growth inhibition. The following applies: Homo sapiens, HCC827, 72 h, MTT, 72 hours incubation, HCC827 cells; read-out: GI50 HCC827. The assay is classed as cell-based. In outline:
as §1

Assay [7] concerns HT1080 (human fibrosarcoma cells). The assay can be described thus: MTT cancer cell growth inhibition. The assay is classed as cell-based. The following applies: Homo sapiens, HT-1080, 72 h, MTT, 72 hours incubation, read-out: GI50 HT1. In outline:
as §1

Assay [8] has as its system Hela (human cervical cancer cells). The assay can be described thus: MTT cancer cell growth inhibition. Type of assay: cell-based. The following applies: Homo sapiens, HeLa, 72 h, MTT, 72 hours incubation, read-out: GI50 Hela. The method in brief: as §1
In assay [9] the test system is Huh-7 (human hepatoma cells). The assay is described as follows: MTT cancer cell growth inhibition. Type of assay: cell-based. To be noted: Homo sapiens, Huh-7, 72 h, MTT, 72 hours incubation, Huh-7 cells; read-out: GI50 Huh-7. The method in brief:
as §1

In assay [10] the test system is K562 (human leukemia cells). The assay is described as follows: MTT cancer cell growth inhibition. Type of assay: cell-based. To be noted: Homo sapiens, K562, 72 h, MTT, 72 hours incubation, K562 cells; read-out: GI50 K562. The method in brief: as §1
Assay [11] has as its system KBM-5 (human chronic myelogenous leukemia). The assay is described as follows: MTT cancer cell growth inhibition. Type of assay: cell-based. The following applies: Homo sapiens, KBM5, 72 h, MTT, 72 hours incubation, KBM-5 cells; read-out: GI50 KBM-5. In outline:
as §1

In assay [12] the test system is KBM5-T315I (human chronic myelogenous leukemia). The assay can be described thus: MTT cancer cell growth inhibition. Type of assay: cell-based. The following applies: Homo sapiens, 72 h, MTT, 72 hours incubation, KBM5-T315I cells; read-out: GI50 KBM5-T315I. The method in brief: as §1
The subject of assay [13] is MCF-7 (human breast cancer cells). The assay is described as follows: MTT cancer cell growth inhibition. The assay is classed as cell-based. The following applies: Homo sapiens, MCF7, 72 h, 72 hours incubation, read-out: GI50 MCF. The method in brief: as §1
For assay [14], the system named is MDA-MB-231 (breast cancer cells). The assay can be described thus: MTT cancer cell growth inhibition. Type of assay: cell-based. The following applies: Homo sapiens, MDA-MB-231, 72 h, read-out: GI50 MDA-MB-231, MTT, 72 hours incubation, MDA-MB-231 cells. In outline:
as §1

Assay [15] has as its system MOLT-4 (human acute lymphoblastic leukemia cells). The assay is described as follows: MTT cancer cell growth inhibition. Type of assay: cell-based. To be noted: Homo sapiens, MOLT-4, 72 h, MTT, 72 hours incubation, read-out: GI50 Mol. The method in brief:
as §1

Assay [16] has as its system N-87 (human gastric cancer cells). The assay can be described thus: MTT cancer cell growth inhibition. The assay is classed as cell-based. To be noted: Homo sapiens, 72 h, MTT, 72 hours incubation, N-87 cells; read-out: GI50 N-87. The method in brief:
as §1

For assay [17], the system named is PANC-1 (Pac-1, human pancreatic cancer cells). The assay is described as follows: MTT cancer cell growth inhibition. The assay is classed as cell-based. To be noted: Homo sapiens, PANC-1, 72 h, MTT, 72 hours incubation, read-out: GI50 PAN. The method in brief: as §1
Assay [18] concerns SGC-7901 (human gastric cancer cells). The assay can be described thus: MTT cancer cell growth inhibition. Type of assay: cell-based. The following applies: Homo sapiens, SGC-7901, 72 h, MTT, 72 hours incubation, SGC-7901 cells; read-out: GI50 SGC-7901. In outline: as §1
Assay [19] has as its system U937 (human leukemia cells). The assay can be described thus: MTT cancer cell growth inhibition. To be noted: Homo sapiens, U-937, 72 h, MTT, 72 hours incubation, read-out: GI50 U93. The assay is classed as cell-based. In outline:
as §1

Assay [20] concerns lncap (prostate cancer cells). The assay can be described thus: MTT cancer cell growth inhibition. Type of assay: cell-based. To be noted: Homo sapiens, LNCaP, 72 h, MTT, 72 hours incubation, read-out: GI50 lnca. In outline: as §1

As usually defined, the GI50 is the concentration giving 50% growth inhibition. On to `C/C=C1\NC(=O)c2cccc(n2)CNC(=O)C[C@@H](/C=C/CCS)OC(=O)[C@H](CC)NC1=O` [Example 28], for which the “IC50 HDAC7” value against HDAC7 was “no activity”. Also, the GI50 amounted to 420 nM in [1]; 1100 nM in [2]; 92 nM in assay [3]; 430 nM in assay [4]; 35 nM in assay [5]; 37 nM in [6]. The concentration for 50% growth inhibition (GI50) in [7] amounted to 40 nM; in assay [8] it was 810 nM; in [9], 73 nM; in assay [10], 35 nM; in assay [11] it was 73 nM; in [12], 51 nM. In addition, the GI50 in assay [13] turned out to be 930 nM; in [14], 86 nM; in assay [15], 80 nM; in assay [16] it was 42 nM; in assay [17], 20 nM; in [18] it was 34 nM. Also, the GI50 in [19] was 2110 nM; in assay [20] it was 390 nM.

With `C/C=C1\NC(=O)c2nc(ccc2F)CNC(=O)C[C@@H](/C=C/CCS)OC(=O)[C@H](C)NC1=O` [Compound 112], the “IC50 HDAC7” value at HDAC7 is reported as “no activity”. The 50% growth inhibitory concentration (GI50) in [1] is 60 nM; in assay [2] it was 80 nM; in assay [3] it was 23 nM; in [4], 60 nM; in assay [5], 16 nM; in [6], 73 nM. The GI50 in [7] came to 90 nM; in assay [8] it was 70 nM; in [9], 35 nM; in assay [10], 55 nM; in assay [11], 21 nM; in assay [12], 31 nM. Further, the GI50 in [13] worked out at 60 nM; in assay [14] it was 58 nM; in assay [15] it was 90 nM; in assay [16], 73 nM; in [17] it was 80 nM; in assay [18], 41 nM. Moreover, the GI50 in [19] is 60 nM; in assay [20], 70 nM.

As for `C/C=C1\NC(=O)c2ccc(F)c(n2)CNC(=O)C[C@@H](/C=C/CCS)OC(=O)[C@H](CCCCNC(=O)OCC2c3ccccc3-c3ccccc32)NC1=O` [Compound 122], the “IC50 HDAC7” value against HDAC7 was “no activity”. Also, the GI50 was 110 nM in assay [1]; 20 nM in [2]; 49 nM in assay [3]; 80 nM in assay [4]; 55 nM in assay [5]; 32 nM in assay [6]. Moreover, the GI50 is 30 nM in assay [7]; 50 nM in assay [8]; 91 nM in assay [9]; 46 nM in assay [10]; 38 nM in assay [11]; 26 nM in assay [12]. Besides, the GI50 stood at 30 nM in [13]; 32 nM in assay [14]; 100 nM in assay [15]; 48 nM in assay [16]; 30 nM in [17]; 61 nM in [18]. For the same compound, the GI50 in assay [19] was 110 nM; in assay [20], 30 nM.

Regarding `C/C=C1\NC(=O)c2ccc(F)c(n2)CNC(=O)C[C@@H](/C=C/CCSC(=O)CCCCCCC)OC(=O)[C@H](CC)NC1=O` [Example 56], the “IC50 HDAC7” value at HDAC7 was “no activity”. Also, the GI50 stood at 50 nM in assay [1]; 40 nM in assay [2]; 93 nM in assay [3]; 40 nM in assay [4]; 53 nM in assay [5]; 93 nM in assay [6]. Besides, the GI50 was determined as 90 nM in assay [7]; 80 nM in assay [8]; 37 nM in [9]; 43 nM in assay [10]; 81 nM in assay [11]; 69 nM in assay [12]. Besides, the GI50 was determined as 60 nM in assay [13]; 37 nM in assay [14]; 30 nM in assay [15]; 42 nM in assay [16]; 90 nM in [17]; 53 nM in assay [18]. Besides, the GI50 in assay [19] turned out to be 50 nM; in assay [20], 30 nM.

As to `C/C=C1\NC(=O)c2nc(ccc2SC)CNC(=O)C[C@@H](/C=C/CCSC(C)=O)OC(=O)[C@H](C(C)C)NC1=O` [Compound 165], the “IC50 HDAC7” value on HDAC7 was “no activity”. Further, the GI50 is 30 nM in assay [1] (A549 cells); 20 nM in [2] (BGC-823 cells); 30 nM in assay [3]; 60 nM in [4] (DU145 cells); 12 nM in assay [5]; 43 nM in assay [6]. The GI50 in assay [7] (HT1080 cells) is 60 nM; in assay [8] (Hela cells), 60 nM; in assay [9], 28 nM; in assay [10] it was 57 nM; in assay [11], 41 nM; in assay [12] it was 34 nM. The GI50 in assay [13] (MCF-7 cells) came to 30 nM; in [14], 53 nM; in assay [15] (MOLT-4 cells), 40 nM; in assay [16], 32 nM; in assay [17] (PANC-1 cells), 70 nM; in [18] it was 76 nM. Moreover, the GI50 was 50 nM in assay [19] (U937 cells) and 20 nM in [20] (lncap cells).
